In a melting point compilation (Tetko et al.; mined from patent text by program, amines drawn as free bases though some values may be those of a salt):

Row | Compound | melting point
1 | CNc1ccc2c(c1)nc(CCc1ccc(C#N)cc1)n2C | 155 to 158 °C
2 | CCCn1nc2c(N)nc3c(c2c1CC(C)(C)S(C)(=O)=O)CCCC3 | 209 to 211 °C
3 | COc1ccc(-n2nc(Sc3ccc(C)cc3)c(C)c(C#N)c2=O)cc1 | 148 to 149 °C
4 | Cc1ccc(NC(=O)c2cc(Cl)c(O)c(Cl)c2)c(O)c1 | 246 to 247 °C
5 | COc1ccc(C2=C(c3c4n(c5ccccc35)CCC(COC(C)=O)C4)C(=O)OC2=O)cc1 (stereo not given) | 79 to 82 °C
6 | COc1ccc(Cl)cc1C(O)C(N)=O (stereo not given) | 121 to 123 °C
7 | COn1c(C)nc2c(NCc3c(C)cccc3C)cc(Br)cc21 | 171 to 172 °C
8 | O=C(NCc1ccc(Cl)c(Cl)c1)c1cn2c(=O)n(Cc3ccc(Cl)cc3)c(=O)cc2s1 | 218 to 219 °C
9 | C=C(C)C(=O)Nc1ccc(O)c(-n2nc3ccc(OC)cc3n2)c1 | 199 to 201 °C
10 | C#CCNC1CCc2ccc([N+](=O)[O-])cc21 (stereo not given) | 37 to 39 °C
11 | OC1=Cc2ccccc2C=Cc2cc(Br)ccc21 | 148 to 151 °C
12 | CCc1ccc2c(=O)c(-c3nnn[nH]3)cn(C)c2c1 | 180 to 181 °C
13 | COc1ccc2c(c1)CCN(C(=O)Cc1ccc([N+](=O)[O-])cc1)C2C (stereo not given) | 112 to 114 °C
14 | CCOC(=O)c1cn(CC)c2cc(NC(C)=O)c(F)cc2c1=O | 177 to 180 °C
15 | COc1cc2c(cc1Nc1ncc(Cl)c(Nc3cccc(OCC#N)c3)n1)CCOC(=O)N2C | 227 to 229 °C
16 | CCc1cc2[nH]c(=O)c(=O)[nH]c2cc1Cl | > 315 °C
17 | COc1ccc(-c2coc(C(=O)NNC(=O)c3ccc(O)c(C#N)c3)c2-c2ccccc2)cc1 | 146 to 148 °C
18 | OC(CCn1ccnc1)c1ccc(Br)cc1 (stereo not given) | 104 to 110 °C
19 | Cc1cccc(-c2n[nH]cc2-c2ccnc(-c3ccc(S(C)(=O)=O)cc3)c2)n1 | 232 to 234 °C
20 | Cc1ccnc(C)c1NC(=O)NCCCl | 122 to 124 °C
21 | CCOC(=O)c1cc(NCc2c(C)cccc2C)c2nc(C)n(C)c2c1 | 190 °C
22 | CCCCc1c(Cl)nc(N=CN(C)C)nc1Cl | 66 to 68 °C
23 | CC(C)(C)OC(=O)NCCCON=C(c1ccccc1)c1cc2ccncc2[nH]1 | 52 to 58 °C
24 | CC(=Cc1ccc(C(C)(C)C)cc1)C[N+]1([O-])CCCCC1 | 82 to 88 °C
25 | CN(C)CCC(=O)Nc1ccc2c(c1)C(=O)c1cc(NC(=O)CCN(C)C)ccc1C2=O | 196 °C

Row | Compound | melting point
26 | CCOC(=O)C(C)(C)Sc1ccc(OCCn2c(C)nc3ccccc3c2=O)cc1 | 188 to 190 °C
27 | CCCOc1ccccc1-c1nc2nc(NCCN(C)C)ncc2c(=O)[nH]1 | 181 to 182 °C
28 | c1cnc(N2CCN(Cc3n[nH]c4ccccc34)CC2)nc1 | 129 to 130 °C
29 | O=C(O)c1cc2cc(Cl)ccc2nc1N[C@@H](CC1CCCCC1)C(=O)O | 160 to 168 °C
30 | O=C(OCc1ccc(Br)cc1)C1C(=O)OC2CC(=O)N21 (stereo not given) | 106 °C
31 | NC(=O)c1ccc(O[C@@H]2CNC[C@H]2O)cc1 (relative stereo) | 202 to 203 °C
32 | COC(=O)c1c(N)c2ccccc2[nH]c1=O | 236 °C
33 | CCCCNC(=O)N(N)CCCC | 34 to 36 °C
34 | CN1C(=O)C2(COc3cc4c(cc32)OCCO4)c2c(C(=O)NCc3ccc(F)cc3)cccc21 (stereo not given) | 149 to 150 °C
35 | N#CCCNC(=O)c1cccc(-c2cccc(OC3CCCCC3)n2)c1 | 131 to 132 °C
36 | O=C(NCc1ccccc1)c1cccc(-c2nc(=O)c3ccccc3s2)n1 | 197 to 198 °C
37 | CC(=O)NCc1ccc(-c2csc(NC(C)=O)n2)s1 | 251 °C
38 | Cn1c(/C=C/C=O)c(-c2ccccc2)c2ccccc2c1=O | 228 °C
39 | COCCCn1c2cc(Cl)ccc2n2c(C)nnc12 | 136 °C
40 | Cc1cc(Cn2[nH]c(N)cc2=O)ccc1Cl | 131 °C
41 | O=S1(=O)N=C2CCCN2c2ccc(O)cc21 | > 300 °C
42 | CC(=O)c1ccc(NS(C)(=O)=O)c(C(=O)c2ccc(F)cc2F)c1 | 114 to 117 °C
43 | CCC(C(=O)c1ccc(NS(C)(=O)=O)cc1)c1ccccc1 (stereo not given) | 143 to 147 °C
44 | CC(C)(C)c1ccc(C2(N=C=O)CCC3(CC2)OCCO3)cc1 | 103 to 106 °C
45 | NNc1ccc(C2CCCCC2)cc1 | 115 to 116 °C
46 | CCCc1[nH]c2cc(C(=O)OC)ccc2c1C(=O)C1CCC1 | 159 to 160 °C
47 | Cc1ccc(-n2nc(C(N)=O)nc2-c2ccccc2)cc1COCCC(C)C | 83 to 85 °C
48 | CN(C)C=Nc1[nH]nc(Nc2cccc(Cl)c2)c1C#N | > 260 °C
49 | CCOC(=O)c1nc(N)sc1-c1nc2cc(C)ccn2c1C | 226 to 228 °C
50 | NS(=O)(=O)c1ccc(-n2nc(C(F)F)cc2-c2nc3ccccc3s2)cc1 | 247 to 249 °C

Row | Compound | melting point
51 | c1cncc(-c2cncnc2)c1 | 101 to 103 °C
52 | c1ccc2c(c1)NCS2 | 60 to 62 °C
53 | Cc1cc(Cl)c([N+](=O)[O-])c(=O)[nH]1 | 225 °C
54 | O=C(Cc1ccccc1Cl)Nc1ccc(C(=O)N2Cc3cccn3Cc3ccccc32)cc1 | 99 to 103 °C
55 | CC(=O)C(Cl)=NNc1ccccc1 | 132 to 134 °C
56 | COc1ccc2cc([C@H](C)C(=O)OCCS(=O)CCO)ccc2c1 (stereo not given in full) | 74 to 86 °C
57 | CCCc1c(OCCCc2ccc3cc(OC)c(OC)cc3c2)ccc(C(=O)OCc2ccccc2)c1O | 94 to 96 °C
58 | CC(=O)c1ccc(-n2c(-c3sc(Nc4ccc(Cl)cc4)nc3-c3ccccc3)nc3ccccc3c2=O)cc1 | 218 to 220 °C
59 | CC=Cc1cc(C(=O)c2ccccc2F)c(Cl)c(Cl)c1O | 83 to 84 °C
60 | COc1cc2nccc(CC(=O)O)c2cc1OC | > 250 °C
61 | O=c1[nH]c2ccccc2c(=O)n1S(=O)(=O)c1ccccc1 | 211 to 213 °C
62 | CCC(=O)Nc1cccc(-c2ccnc3c(C(=O)c4ccccc4)cnn23)c1 | 172 to 174 °C
63 | On1c(C(F)(F)F)nc2nc(Cl)c(Cl)cc21 | 207 to 208 °C
64 | CCOC(=O)c1ccccc1-n1c(CCl)nc2ccc(Cl)cc2c1=O | 195 to 197 °C
65 | CC(C)(NC(=O)CCc1nccn1Cc1ccccc1)c1ccc(Cl)cc1 | 128 to 129 °C
66 | Fc1nc(Cl)c2cc[nH]c2n1 | 180 °C
67 | Cc1cc(N)ccc1-c1ccc(-c2ccc(N)cc2C)s1 | 86 to 88 °C
68 | CCCCCCCCCCCCCCCCCCOc1cc(C(=O)O)cc(C(=O)OC)c1 | 81 to 83 °C
69 | O=C(O)CSC(CCCCNS(=O)(=O)c1ccc(Cl)cc1)CCCc1cccnc1 (stereo not given) | 78 to 80 °C
70 | C=CCc1c(NC(=O)C(F)(F)F)ccc2c(=O)cc(C(=O)OCC)oc12 | 136 to 137 °C
71 | CC(C)Cn1c(=O)n(C)c(=O)c2c(SCCCO)c(Cc3cccc(F)c3)sc21 | 99 to 100 °C
72 | CS(=O)(=O)c1ccc(-n2nc(CNC(=O)Nc3ccc(C(F)(F)F)cc3)cc2-c2ccccc2)cc1 | 129 to 132 °C
73 | O=C1Nc2ccccc2Sc2c1cccc2C(F)(F)F | 256 to 258 °C
74 | IC(I)=C(I)Cn1nnc(-c2ccccc2)n1 | 188 °C
75 | CN(Cc1ccccc1)Cc1ccc(N)cc1 | 48 to 50 °C
